Experiments:
[1] = Measurement of relaxivity (r1, r2), phantom in 3 T MRI; format: physicochemical; settings: 0.0625-1 mM in tertiary distilled water, linear regression, in mM-1 s-1 (unit assumed)
Experimental: Relaxivity (r1, r2) of each of Gd-DO3A-Ga synthesized using the method according to Present Example 2, and Gadovist® and Dotarem® as commercial cyclic contrast agents as comparative groups.
Specifically, a phantom was prepared by diluting the gadolinium complex to 5 concentrations (0.0625, 0.125, 0.25, 0.5, 1 mM) using tertiary distilled water, and then T1 and T2 relaxation times thereof were measured in 3 T MRI. Thus, R (relaxivity=1/T) thereof at each of the concentrations was calculated and a result of the relaxivity of the gadolinium complex was obtained via linear regression analysis. (See following Table 1 and FIG. 5)

[2] = target: amyloid beta polymer (oligomeric Aβ) (Homo sapiens, UniProt P05067); assay: Phantom test for targeting ability toward amyloid beta polymer, 9.4 T MR; format: binding; settings: amyloid beta polymer incubated with contrast agent at 37° C. for 24 hours, washed pellet, FIG. 7
Chain of amyloid beta polymer (oligomeric Aβ) (P05067 672-713 limits assumed): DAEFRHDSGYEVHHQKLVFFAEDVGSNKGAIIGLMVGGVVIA
Experimental: HFIP (221.5 μl) was added to amyloid beta (1 mg, 1 mM) to produce a mixture which in turn was shaken for 1 hour at room temperature using a shaker to remove preaggregation. Next, the amyloid beta from which the pre-aggregation was removed was dried. Then, DMSO (221.5 μl) was added thereto to adjust a concentration thereof to 1 mM. Then, a suspension thereof was produced using a mixer and a sonicator, and PBS (1×, pH 7.4, 878.5 μl) was added to the suspension to adjust a concentration of the suspension to 0.2 mM. Thereafter, the suspension was subjected to incubation for 4 days at 37° C. using a shaker. Then, amyloid beta polymer (oligomeric Aβ) that has been polymerized was dispensed by 200 μl. Then, a further mixed solution in which the compound Gd-DO3A-Ga was dissolved in PBS at a concentration of 2 mM was added thereto at 20 μl amount. A further mixed solution in which the commercial contrast agent (Gadovist®) was dissolved in PBS at a concentration of 2 mM was added thereto at 20 μl amount. Then, each of two resulting mixtures was incubated at 37° C. for 24 hours using a shaker. After completion of the incubation, a supernatant was removed therefrom via centrifugation, and then the amyloid beta polymer was washed with PBS, and then 200 μl of PBS:DMSO=9:1 solution was added to a pellet thereof to prepare MRI phantom samples. […]

Compound	relaxivity r1 [1]	relaxivity r2 [1]	MR signal intensity (contrast enhancement effect) of phantom versus control incubated only with amyloid beta polymer [2]
O=C([O-])CN1CCN(CC(=O)[O-])CCN([C@H](CO)[C@H](O)CO)CCN(CC(=O)[O-])CC1.[Gd+3] (racemic) [Gadovist ®]	3.85 ± 0.09	4.87 ± 0.11	no significant difference
CNC[C@H](O)[C@@H](O)[C@H](O)[C@H](O)CO.O=C([O-])CN1CCN(CC(=O)[O-])CCN(CC(=O)O)CCN(CC(=O)[O-])CC1.[Gd+3] [Dotarem ®]	3.40 ± 0.07	3.88 ± 0.16	–
